Source: PMC8113725, “Structure–activity relationship of ipglycermide binding to phosphoglycerate mutases” (The Journal of Biological Chemistry, 2021)
Read-outs that look alike come from different tables or passages of the source. Bridge positions count the residues as written; N and C are the ends. Square brackets hold non-standard residues; d marks the D form. Ends that are not written are not given here. Peptide text beside a SMILES is read from it. * marks the point of attachment. Phe(4-F) = N[C@@H](Cc1ccc(F)cc1)C(=O)O; Nva = CCC[C@H](N)C(=O)O; NHOH = ON*

B1: iPGM (protein)
chain: MFVALGAQIYRQYFGRRGMAMANNSSVANKVCLIVIDGWGVSEDPYGNAILNAQTPVMDKLCSGNWAQIEAHGLHVGLPEGLMGNSEVGHLNIGAGRVIYQDIVRINLAVKNNKFVTNESLVDACDRAKNGNGRLHLAGLVSDGGVHSHIDHMFALVKAIKELGVPELYLHFYGDGRDTSPNSGVGFLEQTLEFLEKTTGYGKLATVVGRYYAMDRDNRWERINVAYEAMIGGVGETSDEAGVVEVVRKRYAADETDEFLKPIILQGEKGRVQNDDTIIFFDYRADRMREISAAMGMDRYKDCNSKLAHPSNLQVYGMTQYKAEFPFKSLFPPASNKNVLAEWLAEQKVSQFHCAETEKYAHVTFFFNGGLEKQFEGEERCLVPSPKVATYDLQPEMSAAGVADKMIEQLEAGTHPFIMCNFAPPDMVGHTGVYEAAVKACEATDIAIGRIYEATQKHGYSLMVTADHGNAEKMKAPDGGKHTAHTCYRVPLTLSHPGFKFVDPADRHPALCDVAPTVLAIMGLPQPAEMTGVSIVQKI
B2: iPGM (protein)
chain: MLVSKKPMVLVILDGYGYREEQQDNAIFSAKTPVMDALWANRPHTLIDASGLEVGLPDRQMGNSEVGHVNLGAGRIVYQDLTRLDVEIKDRAFFANPVLTGAVDKAKNAGKAVHIMGLLSAGGVHSHEDHIMAMVELAAERGAEKIYLHAFLDGRDTPPRSAESSLKKFEEKFAALGKGRVASIIGRYYAMDRDNRWDRVEKAYDLLTLAQGEFQADTAVAGLQAAYARDENDEFVKATVIRAEGQPDAAMEDGDALIFMNFRADRAREITRAFVNADFDGFARKKVVNVDFVMLTEYAADIKTAVAYPPASLVNTFGEWMAKNDKTQLRISETEKYAHVTFFFNGGVEESFKGEDRILINSPKVATYDLQPEMSSAELTEKLVAAIKSGKYDTIICNYPNGDMVGHTGVMEAAVKAVEALDHCVEEVAKAVESVGGQLLITADHGNAEQMRDPATGQAHTAHTNLPVPLIYVGDKNVKAVEGGKLSDIAPTMLSLMGMEIPQEMTGKPLFIVE

Key:
C. elegans iPGM = C. elegans iPGM (Caenorhabditis elegans, UniProt G5EFZ1); experiment: SPR binding kinetics and saturation binding, biotinylated iPGM on Biotin CAPture chip (Biacore S200)
B. malayi iPGM = target: T1, B. malayi iPGM (Brugia malayi, UniProt Q4VWF8); experiment: biochemical; format: binding; details: for Kd: Supplementary Table 5, SPR, B.m. iPGM, unit inferred
T1 sequence (Q4VWF8 1-515): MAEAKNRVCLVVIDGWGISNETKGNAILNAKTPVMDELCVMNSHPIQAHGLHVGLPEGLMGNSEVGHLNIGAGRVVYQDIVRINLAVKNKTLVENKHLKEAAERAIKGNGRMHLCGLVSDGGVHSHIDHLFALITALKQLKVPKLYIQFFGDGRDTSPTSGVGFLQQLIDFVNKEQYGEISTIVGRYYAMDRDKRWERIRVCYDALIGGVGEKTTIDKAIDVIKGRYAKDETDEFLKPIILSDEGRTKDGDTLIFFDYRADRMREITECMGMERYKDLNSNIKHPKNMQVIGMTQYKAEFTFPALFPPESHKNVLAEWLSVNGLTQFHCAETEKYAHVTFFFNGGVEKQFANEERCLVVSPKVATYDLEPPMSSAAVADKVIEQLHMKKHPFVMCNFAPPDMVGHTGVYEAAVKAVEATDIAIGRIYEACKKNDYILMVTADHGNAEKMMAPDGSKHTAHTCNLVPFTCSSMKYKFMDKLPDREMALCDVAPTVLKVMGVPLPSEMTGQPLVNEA

E. coli iPGM [1] = target: T2, E. coli iPGM (Escherichia coli, UniProt P37689); experiment: SPR binding kinetics and saturation binding, biotinylated iPGM on Biotin CAPture chip (Biacore S200); details: for koff / kon: LoQ = limit of quantitation
D. immitis iPGM = D. immitis iPGM (Dirofilaria immitis, UniProt F4ZE01); experiment: biochemical
E. coli iPGM [2] = target: T2, E. coli iPGM; experiment: biochemical; details: […]
Ce-2 Thr13Ser = target: T3, Ce-2 Thr13Ser (synthetic construct, thioether N-8); experiment: SPR
T3 chain: {CH2CO}-[dY]DYPGDYCYLYGSC

Ce-2 = target: T4, Ce-2 (synthetic construct, thioether N-8); experiment: SPR
T4 chain: {CH2CO}-[dY]DYPGDYCYLYGTC

Ce-1 NHOH = target: T5, Ce-1 NHOH (synthetic construct, thioether N-8; SMILES …); experiment: SPR
T5 chain: {CH2CO}-[dY]DYPGDHCYLYGT-{NHOH}

[3] = Supplementary Table 5, SPR, E.c. iPGM
[4] = Supplementary Table 5, SPR, E.c. iPGM, unit inferred
[5] = SPR, 25 °C, global fit to 1:1 binding model

Molecule | Kd (C. elegans iPGM) | koff (C. elegans iPGM) | kon (C. elegans iPGM) | koff (B. malayi iPGM) | kon (B. malayi iPGM) | Kd (B. malayi iPGM) | koff (E. coli iPGM [1]; [3]) | kon (E. coli iPGM [1]; [3]) | Kd (E. coli iPGM [1]; [4]) | IC50 (D. immitis iPGM; Di iPGM Ave IC50 (M)) | IC50 (E. coli iPGM [2]) | IC50 (D. immitis iPGM; IC50 (M)) | other results
CC(C)C[C@H](NC(=O)[C@H](Cc1ccc(O)cc1)NC(=O)[C@@H]1CSCC(=O)N[C@H](Cc2ccc(O)cc2)C(=O)N[C@@H](CC(=O)O)C(=O)N[C@@H](Cc2ccc(O)cc2)C(=O)N[C@@H](C(C)C)C(=O)NCC(=O)N[C@@H](CC(=O)O)C(=O)N[C@@H](Cc2ccc(O)cc2)C(=O)N1)C(=O)N[C@@H](Cc1ccc(O)cc1)C(=O)NCC(=O)N[C@H](C(=O)N[C@@H](CS)C(N)=O)[C@@H](C)O [Ce-2 P4V] | 0.0668 nM | 1.15e-05 s⁻¹ | 173000 M⁻¹ s⁻¹ | 7.52e-05 s⁻¹ | 194000 M⁻¹ s⁻¹ | 0.407 nM | 0.000272 s⁻¹ | 37300 M⁻¹ s⁻¹ | 7.29 nM | 2.14e-09 M | 8960 nM | – | –
CC(C)C[C@H](NC(=O)[C@H](Cc1ccc(O)cc1)NC(=O)[C@@H]1CSCC(=O)N[C@H](Cc2ccc(O)cc2)C(=O)N[C@@H](CC(=O)O)C(=O)N[C@@H](Cc2ccc(O)cc2)C(=O)N2CCC[C@H]2C(=O)NCC(=O)N[C@@H](CC(=O)O)C(=O)N[C@@H](Cc2c[nH]cn2)C(=O)N1)C(=O)N[C@@H](Cc1ccc(O)cc1)C(=O)NCC(=O)N[C@H](C(=O)NO)[C@@H](C)O [Ce-1 NHOH] | 0.109 nM | 0.000171 s⁻¹ | 1.86e+06 M⁻¹ s⁻¹ | 0.00148 s⁻¹ | 203000 M⁻¹ s⁻¹ | 11.5 nM | 0.914 s⁻¹ | 181000 M⁻¹ s⁻¹ | 5140 nM | 2.92e-09 M | 8970 nM | – | koff (C. elegans iPGM; [5]): 7.8e-05 s⁻¹; kon (C. elegans iPGM; [5]): 1.9e+06 M⁻¹ s⁻¹; koff (B. malayi iPGM; [5]): 0.0015 s⁻¹; kon (B. malayi iPGM; [5]): 200000 M⁻¹ s⁻¹; t½ (E. coli iPGM [1]; SPR, dissociation half-life): ≤1 s; Kd (E. coli iPGM [1]; SPR, Req hyperbolic fit where steady state reached, else koff/kon): 5000 nM
CCC[C@@H]1NC(=O)[C@@H](Cc2ccc(O)cc2)NC(=O)CSC[C@@H](C(=O)N[C@@H](Cc2ccc(O)cc2)C(=O)N[C@@H](CC(C)C)C(=O)N[C@@H](Cc2ccc(O)cc2)C(=O)NCC(=O)N[C@H](C(=O)N[C@@H](CS)C(N)=O)[C@@H](C)O)NC(=O)[C@H](Cc2ccc(O)cc2)NC(=O)[C@H](CC(=O)O)NC(=O)CNC(=O)[C@@H]2CCCN2C(=O)[C@H](Cc2ccc(O)cc2)NC1=O [Ce-2 D2Nva] ({CH2CO}-[dY][Nva]YPGDYCYLYGTC-NH2; thioether N-8) | 0.0257 nM | 4.98e-05 s⁻¹ | 1.94e+06 M⁻¹ s⁻¹ | 0.000143 s⁻¹ | 376000 M⁻¹ s⁻¹ | 0.378 nM | 0.00195 s⁻¹ | 132000 M⁻¹ s⁻¹ | 47.1 nM | 1.51e-09 M | 8730 nM | 1.46e-09 M | –
CC(C)C[C@H](NC(=O)[C@H](Cc1ccc(O)cc1)NC(=O)[C@@H]1CSCC(=O)N[C@H](Cc2ccc(O)cc2)C(=O)N[C@@H](CC(=O)O)C(=O)N[C@@H](Cc2ccc(O)cc2)C(=O)N2CCC[C@H]2C(=O)NCC(=O)N[C@@H](CC(=O)O)C(=O)N[C@@H](Cc2ccc(O)cc2)C(=O)N1)C(=O)N[C@@H](Cc1ccc(O)cc1)C(=O)NCC(=O)NCC(=O)N[C@@H](CS)C(N)=O [Ce-2 T13G] | 0.0433 nM | 5.77e-05 s⁻¹ | 1.32e+06 M⁻¹ s⁻¹ | 6.11e-05 s⁻¹ | 1.19e+06 M⁻¹ s⁻¹ | 0.0493 nM | 0.00133 s⁻¹ | 299000 M⁻¹ s⁻¹ | 10.8 nM | 1.08e-09 M | 99.4 nM | 9.2e-10 M | –
COc1ccc(C[C@H]2NC(=O)CSC[C@@H](C(=O)N[C@@H](Cc3ccc(O)cc3)C(=O)N[C@@H](CC(C)C)C(=O)N[C@@H](Cc3ccc(O)cc3)C(N)=O)NC(=O)[C@H](Cc3ccc(O)cc3)NC(=O)[C@H](CC(=O)O)NC(=O)CNC(=O)[C@@H]3CCCN3C(=O)[C@H](Cc3ccc(O)cc3)NC(=O)[C@H](CC(=O)O)NC2=O)cc1 [Ce-2d Y1D(4OMe)F] | – | – | – | – | – | – | – | – | – | 6.18e-08 M | 18700 nM | – | –
CC(C)C[C@H](NC(=O)[C@H](Cc1ccc(O)cc1)NC(=O)[C@@H]1CSCC(=O)N[C@H](Cc2ccc(O)cc2)C(=O)N[C@@H](CC(=O)O)C(=O)N[C@@H](Cc2ccc(O)cc2)C(=O)N2CCC[C@H]2C(=O)NCC(=O)N[C@@H](CC(=O)O)C(=O)N[C@@H](Cc2ccc(O)cc2)C(=O)N1)C(=O)N[C@@H](Cc1ccc(O)cc1)C(=O)NCC(=O)N[C@H](C(=O)NO)[C@@H](C)O [Ce-2 C14NHOH] | – | – | – | – | – | – | – | – | – | 2.55e-09 M | 14000 nM | – | –
CC(C)C[C@H](NC(=O)[C@H](Cc1ccc(O)cc1)NC(=O)[C@@H]1CSCC(=O)N[C@H](Cc2ccc(O)cc2)C(=O)N[C@@H](CC(N)=O)C(=O)N[C@@H](Cc2ccc(O)cc2)C(=O)N2CCC[C@H]2C(=O)NCC(=O)N[C@@H](CC(=O)O)C(=O)N[C@@H](Cc2ccc(O)cc2)C(=O)N1)C(=O)N[C@@H](Cc1ccc(O)cc1)C(=O)NCC(=O)N[C@H](C(=O)N[C@@H](CS)C(N)=O)[C@@H](C)O [Ce-2 D2N] ({CH2CO}-[dY]NYPGDYCYLYGTC-NH2; thioether N-8) | – | – | – | – | – | – | – | – | – | 1.99e-09 M | 170 nM | 1.87e-09 M | –
CC(C)C[C@H](NC(=O)[C@H](Cc1ccc(F)cc1)NC(=O)[C@@H]1CSCC(=O)N[C@H](Cc2ccc(O)cc2)C(=O)N[C@@H](CC(=O)O)C(=O)N[C@@H](Cc2ccc(O)cc2)C(=O)N2CCC[C@H]2C(=O)NCC(=O)N[C@@H](CC(=O)O)C(=O)N[C@@H](Cc2ccc(O)cc2)C(=O)N1)C(=O)N[C@@H](Cc1ccc(O)cc1)C(=O)NCC(=O)N[C@H](C(=O)N[C@@H](CS)C(N)=O)[C@@H](C)O [Ce-2 Y9(4F)F] ({CH2CO}-[dY]DYPGDYC[Phe(4-F)]LYGTC-NH2; thioether N-8) | – | – | – | – | – | – | – | – | – | 2.8e-09 M | 6930 nM | – | –
B1 | – | – | – | – | – | – | – | – | – | – | – | – | Kd (Ce-2 Thr13Ser): 0.029 nM; Kd (Ce-2): 0.038 nM; Kd (Ce-1 NHOH): 0.11 nM
B2 | – | – | – | – | – | – | – | – | – | – | – | – | Kd (Ce-2 Thr13Ser): 1.3 nM; Kd (Ce-2): 69 nM; Kd (Ce-1 NHOH): 5000 nM
